Experimental data: paper PMC11494653, “Teixobactin “Swapmers” with L Tail Stereochemistry Retain Antibiotic Activity” (The Journal of Organic Chemistry, 2024)
In brackets after ≈: the same amount, converted by molar mass. Positions of bridges follow the written chain, without caps; N, C: chain ends. Non-standard residues stand in square brackets, D forms with d. Residues, ends and D or L forms follow the SMILES beside them. Chains are numbered I, II in the order given. d(aIle) = CC[C@H](C)[C@@H](N)C(=O)O; NMeF = CN[C@@H](Cc1ccccc1)C(=O)O; dNMeF = CN[C@H](Cc1ccccc1)C(=O)O

Columns and labels:
Type in all cases: cell-based
[1] = test system: Bacillus subtilis ATCC 6051; assay: microbe, parasite or virus in culture; conditions: ATCC 6051, 16 h
From the text: (§1) We determined the MIC values of these teixobactin swapmer prodrugs against the Gram-positive bacteria Bacillus subtilis, Staphylococcus epidermidis, methicillin-susceptible Staphylococcus aureus (MSSA), and methicillin-resistant Staphylococcus aureus (MRSA) in a broth microdilution assay as described previously.[9],[10] We used the antibiotic vancomycin as a positive control and the Gram-negative bacterium Escherichia coli as a negative control. The MIC values for Lys10-teixobactin 1, Lys10-teixobactin prodrug 2, Arg10-teixobactin 6, and Arg10-teixobactin prodrug 7 are shown in Table 1 for comparison with the swapmer analogues.
(§2) We performed minimum inhibitory concentration (MIC) assays as previously described.[9] A concise procedure is detailed below.
(§3) Stock solutions of teixobactin analogues were prepared gravimetrically by dissolving an appropriate amount of peptide in 20 mg/mL sterile DMSO. The stock solutions were stored at −20 °C for subsequent experiments.
(§4) Bacillus subtilis (ATCC 6051), Staphylococcus epidermidis (ATCC 14990), methicillin-susceptible Staphylococcus aureus (MSSA) (ATCC 29213), and Escherichia coli (ATCC 10798) were cultured from glycerol stocks in Mueller-Hinton broth containing 0.002% polysorbate 80 overnight in a shaking incubator at 37 °C. Methicillin-resistant Staphylococcus aureus (MRSA) (ATCC 700698) was cultured from a glycerol stock in brain hearth infusion broth containing 0.002% polysorbate 80 overnight in a shaking incubator at 37 °C. After overnight incubation, each culture was diluted with the appropriate media (containing 0.002% polysorbate 80) to 1 × 10^6 colony-forming units (CFU)/mL as previously described.[12],[15],[16] Briefly, we have previously determined the CFU/mL for each bacterium at OD600 = 0.075 for 200 μL of bacterial culture in a 96-well plate. The OD600 of each overnight culture was determined, and then each culture was diluted to OD600 = 0.075. Cultures were further diluted to achieve 1 × 10^6 CFU/mL solutions.
(§5) Aliquots of the 20 mg/mL peptide stock solutions were diluted to make a 64 μg/mL solution in Mueller-Hinton broth containing 0.002% polysorbate 80 and a 64 μg/mL solution in brain heart infusion broth containing 0.002% polysorbate 80. The solutions were mixed by pipetting to ensure homogeneity. A 200-μL aliquot of a 64 μg/mL solution was transferred to a 96-well plate. 2-fold serial dilutions were made with media containing 0.002% polysorbate 80 across the 96-well plate to achieve a final volume of 100 μL in each well (initial concentrations ranging from 64 to 0.0625 μg/mL). A 100-μL aliquot of a 1 × 10^6 CFU/mL bacterial solution was added to each well in the series, resulting in final bacterial concentrations of 5 × 10^5 CFU/mL in each well. As 100 μL of bacteria were added to each well, the concentration of peptide was also diluted 2-fold (final concentrations ranging from 32 μg/mL to 0.03125 μg/mL). Each plate was covered with a lid and incubated at 37 °C for 16 h. The optical density measurements were measured at 600 nm using a 96-well UV–vis plate reader (MultiSkan GO, Thermo Scientific). The MIC values were taken as the lowest concentration that had no bacterial growth. MIC assays for each compound were performed in triplicate to ensure reproducibility.

[2] = test system: Escherichia coli ATCC 10798; assay: microbe, parasite or virus in culture; conditions: ATCC 10798, 16 h
From the text: as §1, §2, §3, §4, §5

[3] = test system: Staphylococcus aureus (MRSA) ATCC 700698; assay: microbe, parasite or virus in culture; conditions: ATCC 700698, 16 h
From the text: as §1, §2, §3, §4, §5

[4] = test system: Staphylococcus aureus (MSSA) ATCC 29213; assay: microbe, parasite or virus in culture; conditions: ATCC 29213, 16 h
From the text: as §1, §2, §3, §4, §5

[5] = test system: Staphylococcus epidermidis ATCC 14990; assay: microbe, parasite or virus in culture; conditions: ATCC 14990, 16 h
From the text: as §1, §2, §3, §4, §5

[6] = test system: Gram-positive bacteria tested; conditions: 16 h
From the text: as §1, §2, §3, §4
Aliquots of the 20 mg/mL peptide stock solutions were diluted to make a 64 μg/mL solution in Mueller-Hinton broth containing 0.002% polysorbate 80 and a 64 μg/mL solution in brain heart infusion broth containing 0.002% polysorbate 80. The solutions were mixed by pipetting to ensure homogeneity. A 200-μL aliquot of a 64 μg/mL solution was transferred to a 96-well plate. 2-fold serial dilutions were made with media containing 0.002% polysorbate 80 across the 96-well plate to achieve a final volume of 100 μL in each well (initial concentrations ranging from 64 to 0.0625 μg/mL). […] The optical density measurements were measured at 600 nm using a 96-well UV–vis plate reader (MultiSkan GO, Thermo Scientific). […]

all bacteria tested = assay: MIC broth microdilution assay, summary over all bacteria; conditions: concentration range tested up to 32 μg/mL
From the text: as §1, §2, §3
as §4, with “After overnight incubation, each culture was diluted with the appropriate media (containing 0.002% polysorbate 80) to 1 × 10^6 colony-forming units (CFU)/mL as previously described.[12],[15],[16]” left out, “Cultures were further diluted to achieve 1 × 10^6 CFU/mL solutions.” left out
Aliquots of the 20 mg/mL peptide stock solutions were diluted to make a 64 μg/mL solution in Mueller-Hinton broth containing 0.002% polysorbate 80 and a 64 μg/mL solution in brain heart infusion broth containing 0.002% polysorbate 80. […] The optical density measurements were measured at 600 nm using a 96-well UV–vis plate reader (MultiSkan GO, Thermo Scientific). […]

Compound | MIC B. subtilis [1] | MIC Bacillus subtilis ATCC 6051 [1] | MIC Escherichia coli ATCC 10798 [2] | MIC Staphylococcus aureus (MRSA) ATCC 700698 [3] | MIC Staphylococcus aureus (MSSA) ATCC 29213 [4] | MIC Staphylococcus epidermidis ATCC 14990 [5] | MIC values against the Gram-positive bacteria tested [6] | fold reduced activity compared to the unswapped analogues 1, 2, 6, and 7 [6] | antibiotic activity in words against all bacteria tested (all bacteria tested)
CC[C@H](C)[C@H](NC(=O)[C@@H](Cc1ccccc1)NC)C(=O)N[C@@H](CO)C(=O)N[C@H](CCC(N)=O)C(=O)N[C@@H](C(=O)N[C@H](C(=O)N[C@@H](CO)C(=O)N[C@H]1C(=O)N[C@@H](C)C(=O)N[C@@H](CCCCN)C(=O)N[C@@H]([C@@H](C)CC)C(=O)O[C@H]1C)[C@@H](C)CC)[C@@H](C)CC [compound 1, Lys10-teixobactin] (H-[dNMeF]IS[dQ][d(aIle)]IS[dT]AKI; ester 8-C) | ≤ 0.0625 µg/mL | ≤0.0313 µg/mL | >32 µg/mL | 2 µg/mL (≈ 1.64 µM) | 2 µg/mL (≈ 1.64 µM) | 1 µg/mL (≈ 0.822 µM) |  |  | 
CC[C@H](C)[C@H](NC(=O)[C@@H](Cc1ccccc1)NC)C(=O)N[C@@H](CO)C(=O)N[C@H](CCC(N)=O)C(=O)N[C@@H](C(=O)N[C@H](C(=O)OC[C@H](N)C(=O)N[C@H]1C(=O)N[C@@H](C)C(=O)N[C@@H](CCCCN)C(=O)N[C@@H]([C@@H](C)CC)C(=O)O[C@H]1C)[C@@H](C)CC)[C@@H](C)CC [compound 2, [Ile6-O-Ser7],Lys10-teixobactin] (I: H-[dNMeF]IS[dQ][d(aIle)]I / II: H-S[dT]AKI; ester I:C-II:1, II:2-II:C) | ≤ 0.0625 µg/mL | ≤0.0313 µg/mL | >32 µg/mL | 1 to 2 µg/mL | 2 µg/mL (≈ 1.64 µM) | 1 µg/mL (≈ 0.822 µM) |  |  | 
CC[C@H](C)[C@H](NC(=O)[C@H](CO)NC(=O)[C@@H](NC(=O)[C@@H](Cc1ccccc1)NC)[C@@H](C)CC)C(=O)N[C@@H](CCC(N)=O)C(=O)N[C@H](C(=O)OC[C@H](N)C(=O)N[C@H]1C(=O)N[C@@H](C)C(=O)N[C@@H](CCCCN)C(=O)N[C@@H]([C@@H](C)CC)C(=O)O[C@H]1C)[C@@H](C)CC [compound 3, Ile4,Gln5,[Ile6-O-Ser7],Lys10-teixobactin] (I: H-[dNMeF]ISIQI / II: H-S[dT]AKI; ester I:C-II:1, II:2-II:C) |  | 4 µg/mL (≈ 3.29 µM) | >32 µg/mL | 8 µg/mL (≈ 6.58 µM) | 8 µg/mL (≈ 6.58 µM) | 4 µg/mL (≈ 3.29 µM) | 4 to 8 µg/mL | 2–4 fold | 
CC[C@H](C)[C@H](NC(=O)[C@H](Cc1ccccc1)NC)C(=O)N[C@@H](CO)C(=O)N[C@H](C(=O)N[C@@H](CCC(N)=O)C(=O)N[C@H](C(=O)OC[C@H](N)C(=O)N[C@H]1C(=O)N[C@@H](C)C(=O)N[C@@H](CCCCN)C(=O)N[C@@H]([C@@H](C)CC)C(=O)O[C@H]1C)[C@@H](C)CC)[C@@H](C)CC [compound 4, N-Me-L-Phe1,Ile4,Gln5,[Ile6-O-Ser7],Lys10-teixobactin] (I: H-[NMeF]ISIQI / II: H-S[dT]AKI; ester I:C-II:1, II:2-II:C) |  | ≥32 µg/mL | >32 µg/mL | >32 µg/mL | >32 µg/mL | >32 µg/mL |  |  | virtually inactive
